Patent US8057790B2, “Treatment of malodour” (Blis Technologies Limited, priority 2003, dated 2011)
Several values for one entry are separate records, joined by “and”; a condition that tells them apart may be missing. Equal entries are not always repeated.

Columns and labels:
halitosis subjects [1] = experiment: Volatile sulphur compound (VSC) breath readings by halimeter in halitosis subjects; assay type: in vivo, human; details: three recalled subjects
Text: Sixty-five subjects were screened for volatile sulphur compound (VSC) breath readings by halimeter (Interscan Corp., Chatsworth, Calif.). VSC readings in persons with normal breath are typically in the range of 80-150 ppb. At levels of 200-300 ppb oral malodor is noticeable by an observer standing close to the patient. At 350-400 ppb, the odour is noticeable by an observer standing several feet away from the patient. Those subjects with breath scores of greater than 200 ppb on two separate visits were recruited for the study (n=13). Each signed an Informed Consent under a protocol approved by the Otago Ethics Committee. Subject's upon their second positive visit undertook a mechanical and chemical treatment of their mouths at the laboratory. This consisted of teeth and tongue brushing (2 minutes with Colgate Total™ [0.3% w/v triclosan], Colgate-Palmolive, N.Y., USA), tongue scraping for 30 seconds, brushing teeth and tongue with a CHX gel (Colgate, Australia) (Perioguard 2.0% CHX mouth gel, 2 minutes) and followed by a 30 second CHX rinse (0.2% CHX, 10% ethanol alcohol). This was followed at intervals by the sucking of a lozenge (BLIS Technologies Limited, Wellington, New Zealand) (commencing 2 hours after treatment and typically 2 hours apart, 4 times daily), each containing>1×10^9 colony forming units of streptomycin-resistant S. salivarius K12. […]

halitosis subjects [2] = experiment: Organoleptic assessment of subjects' saliva; assay type: in vivo, human; details: three recalled subjects; 3-day CHX regimen only; seventh day; scale of 0-5
Text: Sixty-five subjects were screened for volatile sulphur compound (VSC) breath readings by halimeter (Interscan Corp., Chatsworth, Calif.). VSC readings in persons with normal breath are typically in the range of 80-150 ppb. At levels of 200-300 ppb oral malodor is noticeable by an observer standing close to the patient. At 350-400 ppb, the odour is noticeable by an observer standing several feet away from the patient. Those subjects with breath scores of greater than 200 ppb on two separate visits were recruited for the study (n=13). Each signed an Informed Consent under a protocol approved by the Otago Ethics Committee. Subject's upon their second positive visit undertook a mechanical and chemical treatment of their mouths at the laboratory. […]
Fresh saliva samples and tongue swabs were tested for N-benzoyl-DL-arginine-2-naphthylamide (BANA) hydrolysis (BANAMet ILC, Ann Arbor, Mich.), since positive scores by the BANA test have previously been associated with the presence of malodour-forming enzyme activities of certain oral bacterial species (1, 3). […] The samples were graded according to the same criteria used to assess breath air of halitosis sufferers (7), using a scale of 0-5, with 0 equating to no odour detected and 5 the most severe.

[H]/N=C(\N/C(=N/[H])NCCCCCCNC(=N)NC(=N)Nc1ccc(Cl)cc1)Nc1ccc(Cl)cc1 [CHX, chlorhexidine]
change in VSC, organoleptic or BANA readings after treatment with CHX only (halitosis subjects [1]): no decrease | Post CHX treatment Saliva organoleptic (halitosis subjects [2]): 2 and 3
